The values below come from publication PMC4266358 (Journal of Medicinal Chemistry, 2014).

Data set [1] concerns CNS receptors and ion channels (44 off-target sites). The experiment in a line: PDSP broad screen of binding at off-target sites. The following applies: binding screen at 10 μM / Ki follow-up.
For data set [2], the system named is CACO-2 cell monolayer / P-glycoprotein. Nature of the data set: Bidirectional permeability in CACO-2 cell monolayer. The following applies: CACO-2 monolayer; for P-glycoprotein substrate: bidirectional permeability.
Data set [3] has as its system chronic constriction injury (CCI) of the sciatic nerve, mechano-allodynia. Nature of the data set: CCI model of neuropathic pain in mice, oral dosing, paw withdrawal threshold. Type of data set: in vivo, mouse. The following applies: for in vivo duration of action: po, CCI model in mice.
Another data set has as its target T1, mA3AR (Mus musculus, UniProt Q61618).
T1 sequence (Q61618 1-319): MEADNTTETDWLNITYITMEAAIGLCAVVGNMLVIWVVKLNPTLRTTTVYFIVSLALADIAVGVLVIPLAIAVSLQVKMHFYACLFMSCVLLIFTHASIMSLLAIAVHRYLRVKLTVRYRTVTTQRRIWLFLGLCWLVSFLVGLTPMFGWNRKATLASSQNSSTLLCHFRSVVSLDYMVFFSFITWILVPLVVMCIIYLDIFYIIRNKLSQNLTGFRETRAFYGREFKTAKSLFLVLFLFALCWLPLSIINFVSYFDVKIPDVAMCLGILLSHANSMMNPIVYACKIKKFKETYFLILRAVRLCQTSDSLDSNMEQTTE
Type of data set: cell-based.

The nature of data set [4]: Stability in rat liver microsomes.
The nature of data set [5]: Plasma protein binding.
A further data set deals with T2, hA3AR (Homo sapiens, UniProt P0DMS8).
T2 sequence (P0DMS8 1-318): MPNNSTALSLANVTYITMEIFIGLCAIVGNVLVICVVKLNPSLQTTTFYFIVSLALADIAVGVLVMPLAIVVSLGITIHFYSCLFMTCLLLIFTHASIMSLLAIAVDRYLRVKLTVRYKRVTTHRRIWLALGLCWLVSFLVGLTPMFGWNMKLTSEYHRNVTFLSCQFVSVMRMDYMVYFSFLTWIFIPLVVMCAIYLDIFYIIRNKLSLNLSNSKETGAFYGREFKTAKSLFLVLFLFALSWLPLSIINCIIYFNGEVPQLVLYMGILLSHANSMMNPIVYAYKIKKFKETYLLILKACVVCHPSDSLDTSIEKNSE
The experiment in a line: Radioligand binding at hA3AR, CHO cell membranes, [125I]I-AB-MECA. The following applies: read-out: hA3AR Ki, n = 3–4.

The nature of data set [6]: Stability in mouse liver microsomes.
Data set [7] in a line: Plasma protein binding. This is another data set of the same source.
Data set [8] is described as follows: Chemical stability in simulated intestinal fluid. The following applies: pH 6.5, 37 °C.
Data set [9] can be described thus: Stability in human liver microsomes.
Data set [10] in a line: Plasma protein binding. This is another data set of the same source.
Data set [11] in a line: Chemical stability in simulated gastric fluid. The following applies: pH 1.6, 37 °C.

“Also recorded” adds a separate entry of the source.

Regarding `CNC(=O)[C@@]12C[C@@H]1[C@@H](n1cnc3c(NC)nc(C#Cc4ccc(F)c(F)c4)nc31)[C@H](O)[C@@H]2O` [Compound 13, reference compound], the “off-target interactions in PDSP screen” value in [1] is reported as “inhibited binding by >30% at only a few sites”.
`CNC(=O)[C@@]12C[C@@H]1[C@@H](n1cnc3c(NC)nc(C#Cc4cnccn4)nc31)[C@H](O)[C@@H]2O` [Compound 23, (1S,2R,3S,4R,5S)-2,3-Dihydroxy-N-methyl-4-(6-(methylamino)-2-(pyrazin-2-ylethynyl)-9H-purin-9-yl)bicyclo[3.1.0]hexane-1-carboxamide]: the P-glycoprotein substrate entry in data set [2] is on record as “not to be substrates for P-glycoprotein”. In addition, in data set [1], the “off-target interactions in PDSP screen” value is listed as “inhibited binding by >30% at only a few sites”.
Turning to `CNC(=O)[C@@]12C[C@@H]1[C@@H](n1cnc3c(NC)nc(C#Cc4cnn(C)c4)nc31)[C@H](O)[C@@H]2O` [Compound 26, (1S,2R,3S,4R,5S)-2,3-Dihydroxy-N-methyl-4-(2-((1-methyl-1H-pyrazol-4-yl)ethynyl)-6-(methylamino)-9H-purin-9-yl)bicyclo[3.1.0]hexane-1-carboxamide], the “off-target interactions in PDSP screen” value in data set [1] was “relatively free of off-target receptor effects”.
As for `CNC(=O)[C@@]12C[C@@H]1[C@@H](n1cnc3c(NC)nc(C#Cc4ccco4)nc31)[C@H](O)[C@@H]2O` [Compound 27, (1S,2R,3S,4R,5S)-4-(2-(Furan-2-ylethynyl)-6-(methylamino)-9H-purin-9-yl)-2,3-dihydroxy-N-methylbicyclo[3.1.0]hexane-1-carboxamide], in data set [2], the “apical to basal permeability” value is “moderate” and the P-glycoprotein substrate result was “not to be substrates for P-glycoprotein”. For the same compound, the “in vivo duration of action” value in data set [3] is on record as about 3 h. Also, the “off-target interactions in PDSP screen” value in data set [1] is reported as “relatively free of off-target receptor effects; also recorded: completely lacks off-target interactions at 10 μM”.
Consider `CNC(=O)[C@@]12C[C@@H]1[C@@H](n1cnc3c(NC)nc(C#Cc4cccs4)nc31)[C@H](O)[C@@H]2O` [Compound 32, (1S,2R,3S,4R,5S)-2,3-Dihydroxy-N-methyl-4-(6-(methylamino)-2-(thiophen-2-ylethynyl)-9H-purin-9-yl)bicyclo[3.1.0]hexane-1-carboxamide], for which the concentration for half-maximal inhibition (IC50) on mA3AR is 0.0601 µM. The “off-target interactions in PDSP screen” value in data set [1] was “inhibited binding by >30% at only a few sites”.
Regarding `CNC(=O)[C@@]12C[C@@H]1[C@@H](n1cnc3c(NC)nc(C#Cc4ccc(Cl)s4)nc31)[C@H](O)[C@@H]2O` [Compound 33, (1S,2R,3S,4R,5S)-4-(2-((5-Chlorothiophen-2-yl)ethynyl)-6-(methylamino)-9H-purin-9-yl)-2,3-dihydroxy-N-methylbicyclo[3.1.0]hexane-1-carboxamide], in data set [2], the “apical to basal permeability” value was “moderate” and the P-glycoprotein substrate result was “not to be substrates for P-glycoprotein”. For the same compound, the “reversal of neuropathic pain at intermediate dose” value in [3] ([…] po, Figure 1 dose–response) was “approximately 80%”. In addition, the “in vivo duration of action” value in [3] was over 3 h. Besides, in [1], the “off-target interactions in PDSP screen” value was “largely free of off-target receptor effects, except at TSPO and σ1 and σ2 receptors”.
`CNC(=O)[C@@]12C[C@@H]1[C@@H](n1cnc3c(NC)nc(C#C[c-]4cccc4)nc31)[C@H](O)[C@@H]2O.[Fe+2].c1cc[cH-]c1` [Compound 36, (1S,2R,3S,4R,5S)-4-(2-((Ferrocen-yl)ethynyl)-6-(methylamino)-9H-purin-9-yl)-2,3-dihydroxy-N-methylbicyclo[3.1.0]hexane-1-carboxamide]: the “stability in liver microsomes t1/2, rat” value in data set [4] stood at 6.64 min. Moreover, in the data set “Plasma protein binding [5]”, the “% unbound in plasma, human” value stood at 7.00%. On hA3AR, the Ki was determined as 0.0027 µM. The “stability in liver microsomes t1/2, mouse” value in data set [6] stood at 1.98 min. For the same compound, the “% unbound in plasma, mouse” value in the data set “Plasma protein binding [7]” is 4.85%. The “stability in simulated fluids, intestinal, t1/2” value in data set [8] is given as 174 min. The “stability in liver microsomes t1/2, human” value in data set [9] was determined as 3.66 min. Besides, the “max effect Emax (% ± SEM), % of complete reversal at peak protection” value in [3] (3 μmol/kg po on day 7 after CCI, mice, ipsilateral hind paw) worked out at 94.3 ± 5.7%. The “in vivo duration of action” value in [3] was over 3 h. The “% unbound in plasma, rat” value in “Plasma protein binding [10]” is reported as 6.32%. Moreover, the “stability in simulated fluids, gastric, t1/2” value in data set [11] is 46.5 min. Besides, at mA3AR (cyclic AMP assay, HEK293-mA3AR), the “agonist efficacy at the mA3AR” value was “full agonists”.
